For 10 compounds, viability results are on record in patent US11440906B2, “Biguanide derivatives and their rearrangement products for use in the treatment of cancer” (CENTRE NATIONAL DE LA RECHERCHE SCIENTIFIQUE, priority 2017, dated 2022).

Like-named read-outs stand apart in the source and are kept apart here.

The subject of this experiment is A375 Sensitive cells. As to the kind of experiment: Viability test, trypan blue exclusion, A375 Sensitive cells. The following applies: Homo sapiens, A-375, viable cells as percentage of DMSO control. In kind it is cell-based, human. In outline: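 A375 (B-Raf, CDKN2A, PTEN mutant) cells were exposed to compounds at 5.0 or 10 μM for 24 or 48 hr; CRO15 also at 0.5–50 μM for 48 hr or 5 μM for 2–48 hr; DMSO control. Viable cells were counted by trypan blue exclusion, as % of control. Three experiments in triplicate.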

[1] abbreviates: 24 h, read-out: Viab A375 5 μM/ 24 h.
Setting [2] is: 48 h, read-out: Viab A375 5 μM/ 48 h.
Where [3] appears, read: 24 h, read-out: Viab A375 10 μM/ 24 h.
Where [4] appears, read: 48 h, read-out: Viab A375 10 μM/ 48 h.

Consider `N=C(NC(=N)c1cccc(Br)c1)Nc1nc(-c2cccc([N+](=O)[O-])c2)cs1` [MTF 257, 3-bromo-N—(N-(4-(3-nitrophenyl)thiazol-2-yl)carbamimidoyl)benzimidamide], for which the viability at 5 µM was found to be 100% under setting [1] and 80.5% under setting [2]. Also, the viability at 10 µM under setting [3] was 106% and the viability at 10 µM under setting [4] was 62%.

For `N=C(NC(=N)c1ccccn1)Nc1nc(-c2cccc([N+](=O)[O-])c2)cs1` [MTF 259, N—(N-(4-(3-nitrophenyl)thiazol-2-yl)carbamimidoyl)picolinimidamide], the viability at 5 µM under setting [1] came to 157% and the viability at 5 µM under setting [2] amounted to 95.7%. The viability at 10 µM came to 98% under setting [3] and 96.5% under setting [4].

As for `N=C(NC(=N)C(Cl)(Cl)Cl)Nc1nc2ccccc2s1` [MTF 305, N—(N-(benzo[d]thiazol-2-yl)carbamimidoyl)-2,2,2-trichloroacetimidamide], the viability at 5 µM came out at 11% under setting [1] and 20.7% under setting [2]. Also, the viability at 10 µM by setting is: under setting [3], 5.5%; under setting [4], 4.7%.

On to `Nc1nc(Nc2ccccc2SSc2ccccc2Nc2nc(N)nc(-c3ccc4c(c3)OCO4)n2)nc(-c2ccc3c(c2)OCO3)n1` [MTF 449, N2,N2′-(disulfanediylbis(2,1-phenylene))bis(6-(benzo[d][1,3]dioxol-5-yl)-1,3,5-triazine-2,4-diamine)], for which the viability at 5 µM is 74.2% under setting [1] and 67.8% under setting [2]. The viability at 10 µM came to 59.1% under setting [3] and 53% under setting [4].

As for `N=c1nc(C(Cl)(Cl)Cl)nc(Nc2cc(Cl)ccc2O)[nH]1` [MTF 374, 2-((4-amino-6-(trichloromethyl)-1,3,5-triazin-2-yl)amino)-4-chlorophenol], the viability at 5 µM reads like this: under setting [1], 47%; under setting [2], 69.2%. For the same compound, the viability at 10 µM under setting [3] stood at 24% and the viability at 10 µM under setting [4] was 27.7%.

In the case of `CC(=O)c1cccc(-c2nc(N)nc(Nc3ccccc3SSc3ccccc3Nc3nc(N)nc(-c4cccc(C(C)=O)c4)n3)n2)c1` [MTF 462, 1,1′-((((disulfanediylbis(2,1-phenylene))bis(azanediyl))bis(6-amino-1,3,5-triazine-4,2-diyl))bis(3,1-phenylene))bis(ethan-1-one)], the viability at 5 µM runs as follows: under setting [1], 101%; under setting [2], 80%. Further, the viability at 10 µM by setting is: under setting [3], 4.8%; under setting [4], 44.1%.

As to `Nc1nc(Nc2ccccc2SSc2ccccc2Nc2nc(N)nc(-c3ccc(C(F)(F)F)cc3)n2)nc(-c2ccc(C(F)(F)F)cc2)n1` [MTF 394, N2,N2′-(disulfanediylbis(2,1-phenylene))bis(6-(4-(trifluoromethyl)phenyl)-1,3,5-triazine-2,4-diamine)], the viability at 5 µM by setting is: under setting [1], 13.1%; under setting [2], 4.4%. The viability at 10 µM by setting is: under setting [3], 4.5%; under setting [4], 1.1%.

With `Cc1csc(NC(=N)NC(=N)c2cccc(Br)c2)n1` [MTF 288, 3-bromo-N—(N-(4-methylthiazol-2-yl)carbamimidoyl)benzimidamide], the viability at 5 µM runs as follows: under setting [1], 50%; under setting [2], 96.7%. Moreover, the viability at 10 µM by setting is: under setting [3], 70%; under setting [4], 53.5%.

As for `Cc1csc(NC(=N)NC(=N)c2ccccc2Cl)n1` [MTF 284, 2-chloro-N—(N-(4-methylthiazol-2-yl)carbamimidoyl)benzimidamide], the viability at 5 µM reads like this: under setting [1], 80.1%; under setting [2], 117%. For the same compound, the viability at 10 µM runs as follows: under setting [3], 104%; under setting [4], 76.9%.

Turning to `Nc1nc(Nc2cc([N+](=O)[O-])ccc2O)nc(C(Cl)(Cl)Cl)n1` [MTF 377, 2-((4-amino-6-(trichloromethyl)-1,3,5-triazin-2-yl)amino)-4-nitrophenol], the viability at 5 µM by setting is: under setting [1], 27.3%; under setting [2], 34.4%. In addition, the viability at 10 µM under setting [3] is 22.7% and the viability at 10 µM under setting [4] was 33.5%.
